According to US20240066027A1 (DOMAIN THERAPEUTICS, priority 2020, published 2024):
One block for each molecule: values may come before it.

Target: T1, human PAR-2 (hPAR-2) receptor expressed in HEK-293 T cells in an endogenous manner (Homo sapiens, UniProt P55085)
T1 construct: human PAR-2 (hPAR-2) receptor expressed in HEK-293 T cells in an endogenous manner; endogenous in cells; host or cells: HEK-293 T cells
T1 sequence (P55085 26-397): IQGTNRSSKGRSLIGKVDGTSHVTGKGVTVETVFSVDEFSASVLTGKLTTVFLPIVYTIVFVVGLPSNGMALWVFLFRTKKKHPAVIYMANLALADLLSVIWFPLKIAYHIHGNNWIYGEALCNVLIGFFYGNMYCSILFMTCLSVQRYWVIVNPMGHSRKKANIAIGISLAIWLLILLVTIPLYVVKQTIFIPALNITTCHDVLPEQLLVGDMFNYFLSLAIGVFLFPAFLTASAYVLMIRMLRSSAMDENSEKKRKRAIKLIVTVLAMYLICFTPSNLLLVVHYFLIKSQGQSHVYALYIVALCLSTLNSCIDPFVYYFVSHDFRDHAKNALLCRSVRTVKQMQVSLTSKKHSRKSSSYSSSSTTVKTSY
Test: In vitro human PAR-2 functional antagonist activity using calcium assays (Fluo4AM, FLIPR Tetra)
Format: cell-based
Settings: HEK-293 T cells stimulated by an EC80 of the 2-Furoyl-LIGRLO-NH2 peptide after 10 min incubation with compound; 20 concentrations, duplicate, two independent experiments
Procedure: In vitro human PAR-2 functional antagonist activity using calcium assays
Examples of the present invention were tested successively for their agonist and antagonist activities on human PAR-2 (hPAR-2) receptor expressed in HEK-293 T cells in an endogenous manner. Compounds exert agonist activity if, by themselves in absence of the 2-Furoyl-LIGRLO-NH2 peptide (selective hPAR-2 agonist), they activate PAR-2; they exert antagonist activity if they decrease the action of the 2-Furoyl-LIGRLO-NH2 peptide on the receptor. The assay used to determine compound activity is based on calcium measurement.
Cell Culture: HEK-293 T cells were maintained in Dulbecco's Modified Eagle's Medium supplemented with 10% Foetal Calf Serum, 1% Penicillin/Streptomycin at 37° C./5% CO2. Flasks for tests (F75) are seeded with 6e+06 cells 24 h before the experiment at 37° C./5% CO2.
Calcium assay: Receptor activity was detected by changes in intracellular calcium measured using the fluorescent Ca^2+ sensitive dye, Fluo4AM (Molecular Probes).
The day of the assay, medium was replaced by assay buffer (HBSS 1× (Gibco 14175-053), Hepes 20 mM, MgSO4-7H2O 1 mM, Na2CO3 3.3 mM, CaCl2-2H2O 1.3 mM, 0.5% BSA, Probenecid 2.5 mM, 0.1 mg/mL Pluronic Acid) and complemented with 1 μM Fluo4AM and cells were incubated during 1:30 h at 37° C.
Cells were then detached, resuspended in assay buffer and seeded in 384 wells, transparent-flat bottom black walled plates (2e+04 cells per well). Plates were incubated at +22° C. for 20 min. Compounds stock solutions were prepared in 100% DMSO and dilutions in test buffer were carried out in polypropylene plates with a digital dispenser (D300e, Tecan). Compounds were added to the cells and intracellular Ca^2+ measurements were collected at the same time on FLIPR Tetra® (Molecular Devices) with specific filters (Exc: 470-495 nm/Em: 515-575 nm).
Agonist and antagonist activities of compounds were consecutively evaluated on the same cell plate. Agonist activity was first measured after 10 min incubation with the compound alone. Then, cells were stimulated by an EC80 of the 2-Furoyl-LIGRLO-NH2 peptide and fluorescence was recorded for an additional 5 min. EC80 of the 2-Furoyl-LIGRLO-NH2 peptide was the concentration giving 80% of the maximal 2-Furoyl-LIGRLO-NH2 response. Agonist activities are evaluated in comparison to basal signals evoked by assay buffer or maximal 2-Furoyl-LIGRLO-NH2 response. […] Antagonist activities are evaluated in comparison to basal signals evoked by assay buffer or EC80 of 2-Furoyl-LIGRLO-NH2 alone.

Structure (SMILES): CC(C)(C)n1cc(-c2ccc(Cl)c(F)c2)c2ccc(C(=O)N3CCC4(CC3)NC(=O)NC4=O)nc21 [Example 24, 8-(1-(tert-butyl)-3-(4-chloro-3-fluorophenyl)-1H-pyrrolo[2,3-b]pyridine-6-carbonyl)-1,3,8-triazaspiro[4.5]decane-2,4-dione]
IC50: 20 to 10000 nM

Structure (SMILES): CC1(C)C(=O)NCCN1C(=O)c1ccc2c(-c3ccc(Cl)c(F)c3)cn(C3CCOCC3)c2n1 [Example 30, 4-(3-(4-chloro-3-fluorophenyl)-1-(tetrahydro-2H-pyran-4-yl)-1H-pyrrolo[2,3-b]pyridine-6-carbonyl)-3,3-dimethylpiperazin-2-one]
IC50: 20 to 10000 nM

Structure (SMILES): CC1(C)C(=O)NCCN1C(=O)c1ccc2c(-c3ccc(Cl)c(F)c3)cn(CC(F)(F)F)c2n1 [Example 31, 4-(3-(4-chloro-3-fluorophenyl)-1-(2,2,2-trifluoroethyl)-1H-pyrrolo[2,3-b]pyridine-6-carbonyl)-3,3-dimethylpiperazin-2-one]
IC50: 20 to 10000 nM

Structure (SMILES): O=C(c1ccc2c(-c3ccc(Cl)c(F)c3)cn(CC(F)(F)F)c2n1)N1CCCOCC1 [Example 32, (3-(4-chloro-3-fluorophenyl)-1-(2,2,2-trifluoroethyl)-1H-pyrrolo[2,3-b]pyridin-6-yl)(1,4-oxazepan-4-yl)methanone]
IC50: > 10000 nM

Structure (SMILES): O=C(c1ccc2c(-c3ccc(Cl)c(F)c3)cn(CC(F)(F)F)c2n1)N1CC2CCC(C1)O2 [Example 33, (8-oxa-3-azabicyclo[3.2.1]octan-3-yl)(3-(4-chloro-3-fluorophenyl)-1-(2,2,2-trifluoroethyl)-1H-pyrrolo[2,3-b]pyridin-6-yl)methanone]
IC50: > 10000 nM

Structure (SMILES): CC1(C)C(=O)NCCN1C(=O)c1ccc2c(-c3ccc(Cl)c(F)c3)cn(CCOCC(F)(F)F)c2n1 [Example 39, 4-(3-(4-chloro-3-fluorophenyl)-1-(2-(2,2,2-trifluoroethoxy)ethyl)-1H-pyrrolo[2,3-b]pyridine-6-carbonyl)-3,3-dimethylpiperazin-2-one]
IC50: 20 to 10000 nM

Structure (SMILES): CCOCCn1cc(-c2ccc(Cl)c(F)c2)c2ccc(C(=O)N3CCNC(=O)C3(C)C)nc21 [Example 42, 4-(3-(4-chloro-3-fluorophenyl)-1-(2-ethoxyethyl)-1H-pyrrolo[2,3-b]pyridine-6-carbonyl)-3,3-dimethylpiperazin-2-one]
IC50: 20 to 10000 nM

Structure (SMILES): CC(C)Cn1cc(-c2cccc(Cl)c2)c2ccc(C(=O)N3CCNC(=O)C3(C)C)nc21 [Example 50, 4-[3-(3-chlorophenyl)-1-isobutyl-pyrrolo[2,3-b]pyridine-6-carbonyl]-3,3-dimethyl-piperazin-2-one]
IC50: 20 to 10000 nM

Structure (SMILES): CC(C)Cn1cc(-c2ccccc2Cl)c2ccc(C(=O)N3CCNC(=O)C3(C)C)nc21 [Example 53, 4-[3-(2-chlorophenyl)-1-isobutyl-pyrrolo[2,3-b]pyridine-6-carbonyl]-3,3-dimethyl-piperazin-2-one]
IC50: 20 to 10000 nM

Structure (SMILES): CC(C)Cn1cc(-c2ccc(Cl)cc2)c2ccc(C(=O)N3CCNC(=O)C3(C)C)nc21 [Example 54, 4-[3-(4-chlorophenyl)-1-isobutyl-pyrrolo[2,3-b]pyridine-6-carbonyl]-3,3-dimethyl-piperazin-2-one]
IC50: 20 to 10000 nM

Structure (SMILES): CC1(C)C(=O)NCCN1C(=O)c1ccc2c(-c3ccc(Cl)c(F)c3)cn(CCn3cccn3)c2n1 [Example 61, 4-(1-(2-(1H-pyrazol-1-yl)ethyl)-3-(4-chloro-3-fluorophenyl)-1H-pyrrolo[2,3-b]pyridine-6-carbonyl)-3,3-dimethylpiperazin-2-one]
IC50: 20 to 10000 nM

Results, then the molecule that gave them:

IC50: < 20 nM
Structure (SMILES): Cc1cc(N2CCN(C(=O)c3ccc4c(-c5ccc(Cl)c(F)c5)cn(C(C)(C)C)c4n3)C(C)(C)C2)nc(C)c1C(=O)O [Example 26, 6-(4-(1-(tert-butyl)-3-(4-chloro-3-fluorophenyl)-1H-pyrrolo[2,3-b]pyridine-6-carbonyl)-3,3-dimethylpiperazin-1-yl)-2,4-dimethylnicotinic acid]

IC50: 20 to 10000 nM
Structure (SMILES): COc1ccc(Cn2cc(-c3ccc(Cl)c(F)c3)c3ccc(C(=O)N4CCNC(=O)C4(C)C)nc32)cc1 [Example 27, 4-(3-(4-chloro-3-fluorophenyl)-1-(4-methoxybenzyl)-1H-pyrrolo[2,3-b]pyridine-6-carbonyl)-3,3-dimethylpiperazin-2-one]

IC50: < 20 nM
Structure (SMILES): COC1CC(n2cc(-c3ccc(Cl)c(F)c3)c3ccc(C(=O)N4CCNC(=O)C4(C)C)nc32)C1 (centres unmarked) [Example 28, 4-(3-(4-chloro-3-fluorophenyl)-1-(3-methoxycyclobutyl)-1H-pyrrolo[2,3-b]pyridine-6-carbonyl)-3,3-dimethylpiperazin-2-one]

IC50: < 20 nM
Structure (SMILES): CC(C)Cn1cc(-c2ccc(Cl)c(F)c2)c2ccc(C(=O)N3CCNC(=O)C3(C)C)nc21 [Example 29, 4-(3-(4-chloro-3-fluorophenyl)-1-isobutyl-1H-pyrrolo[2,3-b]pyridine-6-carbonyl)-3,3-dimethylpiperazin-2-one]

IC50: 20 to 10000 nM
Structure (SMILES): Cn1cc(-c2ccc(Cl)c(F)c2)c2ccc(C(=O)N3CCNC(=O)C3(C)C)nc21 [Example 34, 4-(3-(4-chloro-3-fluorophenyl)-1-methyl-1H-pyrrolo[2,3-b]pyridine-6-carbonyl)-3,3-dimethylpiperazin-2-one]

IC50: < 20 nM
Structure (SMILES): CC1(C)C(=O)NCCN1C(=O)c1ccc2c(-c3ccc(Cl)c(F)c3)cn(CC3CC3)c2n1 [Example 35, 4-(3-(4-chloro-3-fluorophenyl)-1-(cyclopropylmethyl)-1H-pyrrolo[2,3-b]pyridine-6-carbonyl)-3,3-dimethylpiperazin-2-one]

IC50: < 20 nM
Structure (SMILES): Cc1c(-c2ccc(Cl)c(F)c2)c2ccc(C(=O)N3CCNC(=O)C3(C)C)nc2n1CC(C)C [Example 38, 4-(3-(4-chloro-3-fluorophenyl)-1-isobutyl-2-methyl-1H-pyrrolo[2,3-b]pyridine-6-carbonyl)-3,3-dimethylpiperazin-2-one]

IC50: 20 to 10000 nM
Structure (SMILES): CC1(C)C(=O)NCCN1C(=O)c1ccc2c(-c3ccc(Cl)c(F)c3)cn(CCn3cncn3)c2n1 [Example 40, 4-(1-(2-(1H-1,2,4-triazol-1-yl)ethyl)-3-(4-chloro-3-fluorophenyl)-1H-pyrrolo[2,3-b]pyridine-6-carbonyl)-3,3-dimethylpiperazin-2-one]

IC50: 20 to 10000 nM
Structure (SMILES): CC1(C)C(=O)NCCN1C(=O)c1ccc2c(-c3ccc(Cl)c(F)c3)cn(CCN3CCCC3=O)c2n1 [Example 41, 4-(3-(4-chloro-3-fluorophenyl)-1-(2-(2-oxopyrrolidin-1-yl)ethyl)-1H-pyrrolo[2,3-b]pyridine-6-carbonyl)-3,3-dimethylpiperazin-2-one]

IC50: > 10000 nM
Structure (SMILES): COC(=O)c1c(C)cc(N2CCN(C(=O)c3ccc4c(n3)c(C(C)(C)C)nn4-c3ccc(Cl)c(F)c3)C(C)(C)C2)nc1C [Example 58, methyl 6-(4-(3-(tert-butyl)-1-(4-chloro-3-fluorophenyl)-1H-pyrazolo[4,3-b]pyridine-5-carbonyl)-3,3-dimethylpiperazin-1-yl)-2,4-dimethylnicotinate]

IC50: < 20 nM
Structure (SMILES): Cc1cc(N2CCN(C(=O)c3ccc4c(n3)c(C(C)(C)C)nn4-c3ccc(Cl)c(F)c3)C(C)(C)C2)nc(C)c1C(=O)O [Example 59, 6-(4-(3-(tert-butyl)-1-(4-chloro-3-fluorophenyl)-1H-pyrazolo[4,3-b]pyridine-5-carbonyl)-3,3-dimethylpiperazin-1-yl)-2,4-dimethylnicotinic acid]

IC50: 20 to 10000 nM
Structure (SMILES): CC(C)Cc1nn(-c2ccc(Cl)c(F)c2)c2ccc(C(=O)N3CCNC(=O)C3(C)C)nc12 [Example 62, 4-(1-(4-chloro-3-fluorophenyl)-3-isobutyl-1H-pyrazolo[4,3-b]pyridine-5-carbonyl)-3,3-dimethylpiperazin-2-one]
